Assay results from patent publication US20050203063A1, “Proteasome pathway inhibitors and related methods” (priority 2003, published 2005).

Columns and labels:
Gst-Rad23 [1] = biological target: T1, Gst-Rad23 (Saccharomyces cerevisiae, UniProt P32628); assay: Native gel mobility shift of receptor protein; type: binding
T1 construct: made in house
T1 sequence (P32628 1-398): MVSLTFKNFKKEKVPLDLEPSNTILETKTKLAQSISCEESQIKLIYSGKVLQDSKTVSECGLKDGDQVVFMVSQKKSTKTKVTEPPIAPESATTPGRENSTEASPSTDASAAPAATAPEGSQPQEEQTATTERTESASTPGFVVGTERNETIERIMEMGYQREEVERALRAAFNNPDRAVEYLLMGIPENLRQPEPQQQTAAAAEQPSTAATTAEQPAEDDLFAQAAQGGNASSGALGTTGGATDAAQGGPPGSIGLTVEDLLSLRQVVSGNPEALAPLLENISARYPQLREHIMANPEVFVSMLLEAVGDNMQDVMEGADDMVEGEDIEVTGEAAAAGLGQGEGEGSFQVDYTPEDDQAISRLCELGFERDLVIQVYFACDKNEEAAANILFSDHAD
Experimental: (§1) FIG. 2. […] (A) Degradation of UbSic1. Purified 26S proteasomes were preincubated in the presence or absence of test compounds. UbSic1 was then added, and degradation assayed as described (6). Py mock refers to the pyridine solvent in which C23 was dissolved which was marginally inhibitory, unlike the 50% DMSO vehicle used for other test compounds. (B) Deubiquitination of UbSic1. […] UbSic1 was then added, and deubiquitination was assayed as described (6). (C) Titration curve with varying concentrations of C92 to determine half-maximal inhibition of deubiquitination. (D) C92 inhibits binding of UbSic1 to 26S proteasomes. Purified 26S proteasomes immobilized on anti-Flag beads were incubated with UbSic1 in the presence or absence of C92 as described (6). Following binding, beads were washed and analyzed by immunoblotting with anti-Sic1 polyclonal serum. (E) Binding of UbSic1 to the polyUb binding proteins Rpn10 and Rad23 is inhibited by C92. Recombinant Gst-Rpn10 and Gst-Rad23 (1 μg each) were immobilized on glutathione sepharose beads and then incubated with UbSic1 in the presence or absence of C92. Following binding, beads were washed and analyzed by immunoblotting. (F) C92 interacts with multiUb chains. Equivalent amounts (5 μg) of purified Gst, Gst-fusion protein or multiUb chains were incubated with C92 or C1 before being loaded on a 5% native polyacryamide gel. […]

Gst-Rad23 [2] = biological target: T1, Gst-Rad23; assay: Binding of UbSic1 to Gst-Rad23 on glutathione sepharose beads
Experimental: as §1, with “chains.” for “chains. Equivalent amounts (5 μg) of purified Gst, Gst-fusion protein or multiUb chains were incubated with C92 or C1 before being loaded on a 5% native polyacryamide gel.”
Recombinant Gst-Rpn10 and Gst-Rad23 were immobilized on glutathione sepharose beads. […] Aliquots were analyzed by immunoblotting.

26S proteasomes = tested on: T2, 26S proteasomes; assay: Binding of UbSic1 to immobilized 26S proteasomes; design: species or system S. cerevisiae; settings: 5 μM C92
T2 construct: IC50, deubiquitination of UbSic1; other: titration, epoxomicin-treated proteasomes; other: 5 μM C92
Experimental: as §1, with “Recombinant Gst-Rpn10 and Gst-Rad23 (1 μg each) were immobilized on glutathione sepharose beads and then incubated with UbSic1 in the presence or absence of C92.” left out, “immunoblotting.” for “immunoblotting. (F) C92 interacts with multiUb chains. Equivalent amounts (5 μg) of purified Gst, Gst-fusion protein or multiUb chains were incubated with C92 or C1 before being loaded on a 5% native polyacryamide gel.”
26S proteasomes were immunoprecipitated with anti-Flag resin from tagged and untagged control strains and incubated with 1 mM phenanthroline, 2.5 uM Ub-aldehyde, and 100 μM MG132 at 4° C. for 45 min. […] Washed beads were resuspended in 2×SDS sample buffer and aliquots analyzed by immunoblotting with anti-Sic1.

O=C(Nc1ccc(/C=C/c2ccc(NC(=O)c3cc(S(=O)(=O)O)c4cccnc4c3O)cc2S(=O)(=O)O)c(S(=O)(=O)O)c1)c1cc(S(=O)(=O)O)c2cccnc2c1O [Compound 92]
native gel mobility of Gst-Rad23 (Gst-Rad23 [1]): not Gst-Rpn10 or Gst-Rad23, was altered | inhibition of binding of UbSic1 to Rad23 (Gst-Rad23 [2]): abolished binding | inhibition of binding of UbSic1 to 26S proteasomes (26S proteasomes): strongly inhibited binding
